The numbers were not newly measured in patent US20080003281A1, “Modified Release Tablet Formulations for Proton Pump Inhibitors” (ASTRAZENECA AB, priority 2004, published 2008), which cites them from elsewhere.

In the series the test system is gastric acid. Particulars: 40 mg esomeprazole dose split into 20 mg bid.

As to `COc1ccc2nc([S@@+]([O-])Cc3ncc(C)c(OC)c3C)[nH]c2c1` [esomeprazole, (−)-enantiomer of omeprazole], the “nocturnal gastric acid suppression” value is on record as “significantly improved”.
